Measured values published in patent US20260256792A1, “TREATMENT OF CHRONIC SPONTANEOUS URTICARIA BY ADMINISTERING (R)-2-[3-[4-AMINO-3-(2-FLUORO-4-PHENOXY-PHENYL)PYRAZOLO[3,4-D]PYRIMIDIN-1-YL]PIPERIDINE-1-CARBONYL]-4-METHYL-4-[4-(OXETAN-3-YL)PIPERAZIN-1-YL]PENT-2-ENENITRILE” (priority 2023, published 2026).

Test system: moderate-to-severe chronic spontaneous urticaria (CSU)
Assay: Phase 2 CSU study: Patient Global Impression of Change (PGIC)
Format: in vivo, human
Settings: for PGIC Mean (SD) / PGIC Median / PGIC category A little better, patients / PGIC category A little worse, patients / PGIC category Moderately better, patients / PGIC category Moderately worse, patients / PGIC category No change, patients / PGIC category Very much better, patients / PGIC category Very much worse, patients: omalizumab-naïve population; for PGIC LS Mean (SE) / PGIC LS Mean Diff vs. placebo (95% CI): omalizumab-naïve, ANCOVA
From the text: The study comprises a 12 week, randomized, double-blind, placebo-controlled, multi-center, dose-ranging efficacy and safety phase, followed by a 40 week open label extension (OLE) phase (see FIG. 1).
The study consists of three phases and an optional OLE phase.
The PGIS is a 1-item measure that asks participants to provide a self-assessment of their overall CSU severity for the past week on a 4 point scale. Response choices are: “None”, “Mild”, “Moderate” and “Severe”. The PGIC is a 1-item measure that asks the participant to provide a self-assessment of overall change in their CSU since the participant started taking the study medication on a 7-point scale. The response options range from “Very Much Better” to “Very Much Worse.” Patients were to complete questionnaires for the 2 items during their site visit.

With `CC(C)(C=C(C#N)C(=O)N1CCC[C@@H](n2nc(-c3ccc(Oc4ccccc4)cc3F)c3c(N)ncnc32)C1)N1CCN(C2COC2)CC1` [rilzabrutinib, (R)-2-[3-[4-amino-3-(2-fluoro-4-phenoxy-phenyl)pyrazolo[3,4-d]pyrimidin-1-yl]piperidine-1-carbonyl]-4-methyl-4-[4-(oxetan-3-yl)piperazin-1-yl]pent-2-enenitrile] the “quality of life as measured by PGIC” value (400 mg TID) was “improvement”, the “PGIC Mean (SD)” value (Week 2, 400 mg BID) was 1.61 and the “PGIC Median” value (Week 2, 400 mg BID) was 1.00. For the same compound, the “PGIC category A little better, patients” value (Week 2, 400 mg BID) was 6 (19.4), the “PGIC category A little worse, patients” value (Week 2, 400 mg BID) was 1 (3.2) and the “PGIC category Moderately better, patients” value (Week 2, 400 mg BID) was 5 (16.1). For the same compound, the “PGIC category Moderately worse, patients” value (Week 2, 400 mg BID) was 1 (3.2), the “PGIC category No change, patients” value (Week 2, 400 mg BID) was 6 (19.4) and the “PGIC category Very much better, patients” value (Week 2, 400 mg BID) was 11 (35.5). For the same compound, the “PGIC category Very much worse, patients” value (Week 2, 400 mg BID) was 1 (3.2), the “PGIC LS Mean (SE)” value (Week 2, 400 mg BID) was 1.53 and the “PGIC LS Mean Diff vs. placebo (95% CI)” value (Week 2, 400 mg BID) was −0.81. For the same compound, the “PGIC Mean (SD)” value (Week 2, 400 mg QPM) was 2.33, the “PGIC Median” value (Week 2, 400 mg QPM) was 3.00 and the “PGIC category A little better, patients” value (Week 2, 400 mg QPM) was 7 (21.2). For the same compound, the “PGIC category A little worse, patients” value (Week 2, 400 mg QPM) was 1 (3.0), the “PGIC category Moderately better, patients” value (Week 2, 400 mg QPM) was 5 (15.2) and the “PGIC category Moderately worse, patients” value (Week 2, 400 mg QPM) was 0. The “PGIC category No change, patients” value (Week 2, 400 mg QPM) was 16 (48.5), the “PGIC category Very much better, patients” value (Week 2, 400 mg QPM) was 3 (9.1) and the “PGIC category Very much worse, patients” value (Week 2, 400 mg QPM) was 1 (3.0). The “PGIC LS Mean (SE)” value (Week 2, 400 mg QPM) was 2.12, the “PGIC LS Mean Diff vs. placebo (95% CI)” value (Week 2, 400 mg QPM) was −0.22 and the “PGIC Mean (SD)” value (Week 2, 400 mg TID) was 1.42. For the same compound, the “PGIC Median” value (Week 2, 400 mg TID) was 1.00, the “PGIC category A little better, patients” value (Week 2, 400 mg TID) was 7 (21.2) and the “PGIC category A little worse, patients” value (Week 2, 400 mg TID) was 0. The “PGIC category Moderately better, patients” value (Week 2, 400 mg TID) was 7 (21.2), the “PGIC category Moderately worse, patients” value (Week 2, 400 mg TID) was 1 (3.0) and the “PGIC category No change, patients” value (Week 2, 400 mg TID) was 5 (15.2). For the same compound, the “PGIC category Very much better, patients” value (Week 2, 400 mg TID) was 12 (36.4), the “PGIC category Very much worse, patients” value (Week 2, 400 mg TID) was 1 (3.0) and the “PGIC LS Mean (SE)” value (Week 2, 400 mg TID) was 1.43. For the same compound, the “PGIC LS Mean Diff vs. placebo (95% CI)” value (Week 2, 400 mg TID) was −0.91, the “PGIC Mean (SD)” value (Week 4, 400 mg BID) was 1.67 and the “PGIC Median” value (Week 4, 400 mg BID) was 1.00. The “PGIC category A little better, patients” value (Week 4, 400 mg BID) was 6 (18.2), the “PGIC category A little worse, patients” value (Week 4, 400 mg BID) was 2 (6.1) and the “PGIC category Moderately better, patients” value (Week 4, 400 mg BID) was 8 (24.2). For the same compound, the “PGIC category Moderately worse, patients” value (Week 4, 400 mg BID) was 0, the “PGIC category No change, patients” value (Week 4, 400 mg BID) was 7 (21.2) and the “PGIC category Very much better, patients” value (Week 4, 400 mg BID) was 9 (27.3). For the same compound, the “PGIC category Very much worse, patients” value (Week 4, 400 mg BID) was 1 (3.0), the “PGIC LS Mean (SE)” value (Week 4, 400 mg BID) was 1.59 and the “PGIC LS Mean Diff vs. placebo (95% CI)” value (Week 4, 400 mg BID) was −0.49. The “PGIC Mean (SD)” value (Week 4, 400 mg QPM) was 2.24, the “PGIC Median” value (Week 4, 400 mg QPM) was 2.00 and the “PGIC category A little better, patients” value (Week 4, 400 mg QPM) was 10 (29.4). The “PGIC category A little worse, patients” value (Week 4, 400 mg QPM) was 5 (14.7), the “PGIC category Moderately better, patients” value (Week 4, 400 mg QPM) was 4 (11.8) and the “PGIC category Moderately worse, patients” value (Week 4, 400 mg QPM) was 1 (2.9). For the same compound, the “PGIC category No change, patients” value (Week 4, 400 mg QPM) was 7 (20.6), the “PGIC category Very much better, patients” value (Week 4, 400 mg QPM) was 6 (17.6) and the “PGIC category Very much worse, patients” value (Week 4, 400 mg QPM) was 1 (2.9). The “PGIC LS Mean (SE)” value (Week 4, 400 mg QPM) was 2.06, the “PGIC LS Mean Diff vs. placebo (95% CI)” value (Week 4, 400 mg QPM) was −0.02 and the “PGIC Mean (SD)” value (Week 4, 400 mg TID) was 1.14. For the same compound, the “PGIC Median” value (Week 4, 400 mg TID) was 1.00, the “PGIC category A little better, patients” value (Week 4, 400 mg TID) was 6 (20.7) and the “PGIC category A little worse, patients” value (Week 4, 400 mg TID) was 1 (3.4). For the same compound, the “PGIC category Moderately better, patients” value (Week 4, 400 mg TID) was 5 (17.2), the “PGIC category Moderately worse, patients” value (Week 4, 400 mg TID) was 0 and the “PGIC category No change, patients” value (Week 4, 400 mg TID) was 4 (13.8). The “PGIC category Very much better, patients” value (Week 4, 400 mg TID) was 13 (44.8), the “PGIC category Very much worse, patients” value (Week 4, 400 mg TID) was 0 and the “PGIC LS Mean (SE)” value (Week 4, 400 mg TID) was 1.18. For the same compound, the “PGIC LS Mean Diff vs. placebo (95% CI)” value (Week 4, 400 mg TID) was −0.90, the “PGIC Mean (SD)” value (Week 8, 400 mg BID) was 1.42 and the “PGIC Median” value (Week 8, 400 mg BID) was 1.00. For the same compound, the “PGIC category A little better, patients” value (Week 8, 400 mg BID) was 3 (9.1).
